Assay results reported in US20070134688A1, “CALCULATED INDEX OF GENOMIC EXPRESSION OF ESTROGEN RECEPTOR (ER) AND ER-RELATED GENES” (THE BOARD OF REGENTS OF THE UNIVERSITY OF TEXAS SYSTEM, priority 2005, published 2007).

Key:
[1] = tested on: ER-positive breast cancer; experiment: Distant relapse-free survival after adjuvant tamoxifen; assay type: in vivo, human; details: ER-positive patients on adjuvant tamoxifen
Protocol: Patients and Samples. […] At MDACC, pre-treatment fine needle aspiration (FNA) samples of primary breast cancer were obtained using a 23-gauge needle and the cells from 1-2 passes were collected into a vial containing 1 ml of RNAlater™ solution (Ambion, Austin Tex.) and stored at −80° C. until use, whereas archival frozen samples were evaluated from resected, metastatic, ER-positive breast cancer. All patients signed an informed consent for voluntary participation to collect samples for research. At other institutions, fresh tissue samples of surgically resected primary breast cancer were frozen in OCT compound and stored at −80° C.
Statistical Analysis of Distant relapse-free survival (DRFS). Distant relapse-free survival (DRFS) was defined as the interval from breast surgery until diagnosis of distant metastasis. Covariate effects on distant relapse risk after tamoxifen treatment were evaluated using log-rank test in multivariate Cox proportional hazards models stratified by institution. […] Confidence intervals of the survival estimate were calculated based on the Tsiatis variance estimates of the cumulative log-hazards (Therneau and Grambsch, 2000). […]

[2] = tested on: ER-positive cancer; details: compared to placebo, cited from earlier work

Compound | mean relapse-free survival at 10 years ([1]; SET index<2) [%] | mean relapse-free survival at 10 years ([1]; SET index>5) [%] | relative reduction in deaths ([2]; after 2.4 years, after 5 years of adjuvant tamoxifen) [%] | absolute difference in recurrence or new primaries ([2]; at 2.4 years) [%]
CC/C(=C(\c1ccccc1)c1ccc(OCCN(C)C)cc1)c1ccccc1 [tamoxifen] | 57.1 | 90.0 | – | –
N#Cc1ccc(C(c2ccc(C#N)cc2)n2cncn2)cc1 [letrozole] | – | – | 24 | 2.2
